In brackets after ≈: the same amount, converted by molar mass. Entries after “also recorded” stand apart in the source; their conditions may differ. Starred links: 1 amine or outer side, 2 acyl side, 3 side chain; linkers in the order of their positions; H or OH if unused. Positions of bridges follow the written chain, without caps; N, C: chain ends. Non-standard residues stand in square brackets, D forms with d. Residues, ends and D or L forms follow the SMILES beside them. Chains are numbered I, II in the order given. Actinocin(9to1) = Cc1c2oc3c(C)ccc(C(=O)[*:1])c3nc-2c(C(=O)[*:2])c(N)c1=O; NMeV = CN[C@H](C(=O)O)C(C)C; Sar = CNCC(=O)O
Legend:
[1] = test system: fungi; details: cited from earlier work
[2] = test system: Candida albicans; experiment: survival of mice challenged with Candida albicans; type: in vivo, Swiss albino mice; details: for survival rate: 21-day study period, clotrimazole types 7.5 mg/kg, nystatin types 50 mg/kg; for survival rate after extended treatment: treatment extended two more weeks, 28 days post-inoculation
[3] = oral absorption; type: in vivo
[4] = test system: P. marneffei; experiment: in vitro MIC against P. marneffei, tube double dilution; type: cell-based, Penicillium marneffei; details: Talaromyces marneffei, standard tube double dilution, read-out: minimum inhibitory concentration (MIC)
[5] = test system: M. leprae; experiment: in vitro culture of M. leprae, growth inhibition; type: cell-based
[6] = test system: Mycobacterium avicum Complex (MAC); details: cited from earlier work
[7] = toxicity / LD 50 in mice; details: mouse, in vivo
[8] = test system: human breast carcinoma MX-1; experiment: MX-1 human breast tumor in nude mice; details: intraperitoneal; for effect on MX-1 tumors (in words): 0.5 mg/kg escalating to 5 mg/kg (parents) or 20 mg/kg (JAI-); for deaths / survival of MX-1 mice (in words): 3 animals per group
Procedure: Nude mice were grafted with transplantable human breast carcinoma MX-1, which was allowed to grow until the tumors were very large. The mice were then treated with clinically compatible dosage schedules of the compounds. All doses were administered intraperitoneally.
A control group (3 animals in the group), grafted with MX-1 tumor, which was allowed to grow to large tumors. Then, the mice were injected with distilled water and their tumors were measured simultaneously with the experimental treated animals.
1. […] The starting dose of mitomycin C was 0.5 mg/kg. escalating up to 5 mg/kg to all mice in the group. […] (3 animals per group).
2. […] The starting dose was 0.5 mg/kg escalating to 20 mg/kg. […] (3 animals per group).
3. […] The starting dose was 0.5 mg/kg escalating to 5 mg/kg. (3 animals per group).
4. […] The starting dose was 0.5 mg/kg escalating to 20mg/kg doses. (3 animals per group).

[9] = test system: Bacillus subtilis; details: 28° C., 12 hours
Procedure: All plates were incubated at 10° C. for 30 minutes, and then transferred to an incubator at 28° C. for 12 hours. Zones of inhibition were obtained from each plate, and Rf values were calculated.

[10] = test system: bacteria; details: cited from earlier work

With `CC1(C)S[C@@H]2[C@H](NC(=O)Cc3ccccc3)C(=O)N2[C@H]1C(=O)O` [sodium penicillin G] the solubility in acetone (acetone) was “insoluble in acetone”, the “solubility in methanol, alcohol, other solvents” value (methanol, alcohols, ethyl acetate, other solvents) was “soluble in water, alcohol and some solvents” and the solubility in water was “soluble in water”. The “antifungal activity (stated as known)” value [1] was “no antifungal activity”.

In the case of `C[C@@H]1[C@H](O)[C@@H](C)/C=C/C=C/CC/C=C/C=C/C=C/C=C/C(O[C@H]2O[C@H](C)[C@@H](O)[C@H](N)[C@@H]2O)CC2O[C@](O)(CC(O)C(O)CCC(O)CC(O)CC(O)CC(=O)O[C@H]1C)CC(O)C2C(=O)O` (stereo partly drawn) [nystatin], the survival rate [2] is reported as 75% and the “survival rate after extended treatment” value [2] is reported as 75%.

With `C[C@@H]1[C@H](O)[C@@H](C)/C=C/C=C/C=C/C=C/C=C/C=C/C=C/[C@H](O[C@@H]2O[C@H](C)[C@@H](O)[C@H](N)[C@@H]2O)C[C@@H]2O[C@](O)(C[C@@H](O)C[C@@H](O)[C@H](O)CC[C@@H](O)C[C@@H](O)CC(=O)O[C@H]1C)C[C@H](O)[C@H]2C(=O)O` [amphotericin B] the oral absorption [3] was “poorly absorbed orally” and the MIC [4] was 0.195 to 1.56 µg/mL (≈ 0.211 to 1.69 µM).

`Nc1nc(=O)[nH]cc1F` [5-FC, 5-fluorocytosine] gave an MIC [4] of 0.195 to 0.78 µg/mL (≈ 1.51 to 6.04 µM).

In the case of `Clc1ccccc1C(c1ccccc1)(c1ccccc1)n1ccnc1` [Clotrimazole], the survival rate [2] is reported as 62.5%, the “survival rate after extended treatment” value [2] is reported as “zero” and the solubility in water is reported as “insoluble in water”.

`Clc1ccc(COC(Cn2ccnc2)c2ccc(Cl)cc2Cl)c(Cl)c1` (stereo not drawn) [miconazole] gave an MIC [4] of 0.195 µg/mL (≈ 0.469 µM).

With `NCC[C@H](O)C(=O)N[C@@H]1C[C@H](N)[C@@H](O[C@H]2O[C@H](CN)[C@@H](O)[C@H](O)[C@H]2O)[C@H](O)[C@H]1O[C@H]1O[C@H](CO)[C@@H](O)[C@H](N)[C@H]1O` [amikacin] the inhibition at 100 µg/mL ([5]; Mycobacterium leprae, 100 mcg/ml, read-out: growth inhibition against M. leprae) was 63%, the M. leprae killed ([5]; concentration not given) was 63% and the “effect of combination with dapsone on M. leprae” value ([5]; in combination with dapsone) was “did not show any additive effects”. The “activity against MAC (earlier studies)” value [6] was “high in vitro and in vyvn activity”.

With `Cc1c2oc3c(C)ccc(C(=O)N[C@@H]4C(=O)N[C@H](C(C)C)C(=O)N5CCC[C@H]5C(=O)N(C)CC(=O)N(C)[C@@H](C(C)C)C(=O)O[C@@H]4C)c3nc-2c(C(=O)N[C@@H]2C(=O)N[C@H](C(C)C)C(=O)N3CCC[C@H]3C(=O)N(C)CC(=O)N(C)[C@@H](C(C)C)C(=O)O[C@@H]2C)c(N)c1=O` [dactinomycin] (I: T[dV]P[Sar][NMeV] / II: T[dV]P[Sar][NMeV]; ester I:1-I:C, II:1-II:C; linker I:N-II:N via Actinocin(9to1)) the LD50 [7] was 0.5 to 5 mg/kg.

In the case of `CC(=O)N1CCN(c2ccc(OCC3COC(Cn4ccnc4)(c4ccc(Cl)cc4Cl)O3)cc2)CC1` (stereo not drawn) [ketoconazole], the MIC [4] is reported as 0.195 to 0.39 µg/mL (≈ 0.367 to 0.734 µM).

For bleomycin, the “effect on MX-1 tumors (in words)” value [8] was “some initial slowing in tumor growth, but then had no response” and the “effect on MX-1 tumors (in words)” value ([8]; listed as Bleomycin) was “some initial slowing of tumor growth, but then there was no response”.

For `CO[C@@]12[C@H](COC(N)=O)C3=C(C(=O)C(C)=C(N)C3=O)N1C[C@@H]1N[C@@H]12` [Mitomycin C], the “effect on MX-1 tumors (in words)” value ([8]; listed as Mitomycin-C) was “the tumors regressed”, the “effect on MX-1 tumors (in words)” value ([8]; listed as mitomycin-C) was “eliminated the human MX-1 breast tumors” and the “deaths / survival of MX-1 mice (in words)” value ([8]; listed as Mitomycin-C) was “died”. For the same compound, the “deaths / survival of MX-1 mice (in words)” value ([8]; listed as mitomycin-C) was “All animals died in a two month time span; also recorded: all animals in this treatment group died from hepatotoxicity”.

In the case of hamycin, the “zone of inhibition, B. subtilis seeded plate” value [9] is given as “no zone spot” and the “antibacterial activity (stated as known)” value [10] is given as “no antibacterial activity”.

From patent publication US6015808A, “Synthesis of pharmaceutical compositions with lactams and β-lactams/oxo thia azabicyclo compounds” (priority 1995, dated 2000)
